Assay results as given in ChEMBL document CHEMBL1146551, “Simplified tetrandrine congeners as possible antihypertensive agents with a dual mechanism of action” (J Nat Prod, 2003).

Tests used:
[1] = biological target: T1, Adrenergic receptor alpha-1 (Rattus norvegicus, UniProt P15823+P23944+P43140); experiment: Displacement of [3H]prazosin from alpha1 adrenergic receptor in Wistar rat cerebral cortex membrane; assay type: tissue-based
T1 sequence (P15823 whole entry): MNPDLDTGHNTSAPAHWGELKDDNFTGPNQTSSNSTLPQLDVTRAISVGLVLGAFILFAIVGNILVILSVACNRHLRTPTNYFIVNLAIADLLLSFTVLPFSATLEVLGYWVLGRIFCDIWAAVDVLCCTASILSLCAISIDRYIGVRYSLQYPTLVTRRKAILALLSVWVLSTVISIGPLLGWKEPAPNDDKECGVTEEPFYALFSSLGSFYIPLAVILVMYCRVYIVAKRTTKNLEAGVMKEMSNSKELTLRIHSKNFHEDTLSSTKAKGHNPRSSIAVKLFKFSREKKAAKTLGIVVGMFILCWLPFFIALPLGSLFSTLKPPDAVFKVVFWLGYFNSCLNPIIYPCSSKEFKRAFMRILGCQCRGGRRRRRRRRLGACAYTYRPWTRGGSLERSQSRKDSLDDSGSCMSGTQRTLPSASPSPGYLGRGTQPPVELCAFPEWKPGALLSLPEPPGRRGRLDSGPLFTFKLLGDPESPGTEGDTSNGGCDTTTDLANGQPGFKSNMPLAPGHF
T1 sequence (P23944 whole entry): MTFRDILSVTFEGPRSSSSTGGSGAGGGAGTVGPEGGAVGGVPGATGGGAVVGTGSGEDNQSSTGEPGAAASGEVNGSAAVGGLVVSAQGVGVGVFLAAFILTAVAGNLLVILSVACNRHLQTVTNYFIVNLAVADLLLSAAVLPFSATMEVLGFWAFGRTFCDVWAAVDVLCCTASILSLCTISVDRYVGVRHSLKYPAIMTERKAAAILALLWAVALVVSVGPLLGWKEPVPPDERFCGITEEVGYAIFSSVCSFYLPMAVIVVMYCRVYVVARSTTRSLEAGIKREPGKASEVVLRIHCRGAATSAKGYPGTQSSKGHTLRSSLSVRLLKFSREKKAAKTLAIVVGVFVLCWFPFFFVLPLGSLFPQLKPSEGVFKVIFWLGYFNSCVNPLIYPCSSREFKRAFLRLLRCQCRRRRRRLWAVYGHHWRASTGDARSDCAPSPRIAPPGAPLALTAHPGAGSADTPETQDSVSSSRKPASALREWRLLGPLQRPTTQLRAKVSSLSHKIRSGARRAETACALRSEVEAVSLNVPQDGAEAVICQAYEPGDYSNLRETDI
T1 sequence (P43140 whole entry): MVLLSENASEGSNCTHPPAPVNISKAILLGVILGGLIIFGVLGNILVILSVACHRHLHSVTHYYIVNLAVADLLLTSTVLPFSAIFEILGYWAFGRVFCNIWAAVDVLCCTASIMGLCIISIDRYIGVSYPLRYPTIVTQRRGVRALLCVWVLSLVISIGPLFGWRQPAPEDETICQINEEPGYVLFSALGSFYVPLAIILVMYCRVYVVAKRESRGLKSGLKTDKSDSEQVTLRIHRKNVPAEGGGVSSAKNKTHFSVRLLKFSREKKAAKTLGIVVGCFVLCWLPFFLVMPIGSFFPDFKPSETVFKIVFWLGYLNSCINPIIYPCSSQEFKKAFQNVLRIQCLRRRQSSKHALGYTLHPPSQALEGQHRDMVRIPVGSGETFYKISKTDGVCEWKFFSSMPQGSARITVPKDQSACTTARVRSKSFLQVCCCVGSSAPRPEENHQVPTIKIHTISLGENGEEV

[2] = biological target: Voltage-gated L-type calcium channel (Rattus norvegicus, UniProt P22002+Q02485+P27732); experiment: Displacement of [3H]diltiazem from benzothiazepine binding site of L-type calcium channel in Wistar rat cerebral cortex membrane
Aorta [3] = experiment: Vasorelaxant activity against noradrenaline-induced contraction in Wistar rat thoracic aorta in presence of calcium; assay type: functional, tissue-based
Aorta [4] = experiment: Vasorelaxant activity against KCl-induced contraction in Wistar rat thoracic aorta in presence of calcium; assay type: functional, tissue-based
Aorta [5] = experiment: Vasorelaxant activity against KCl-induced contraction in Wistar rat thoracic aorta at 100 uM in presence of calcium; assay type: functional; set-up: scale not given: the % may be the effect or the level left

| Structure (SMILES) | pKi [1] | pKi [2] | IC50 (Aorta [3]) [µM] | IC50 (Aorta [4]) [µM] | Activity (Aorta [5]) [%] | Activity ([2]; rat) [%] |
| --- | --- | --- | --- | --- | --- | --- |
| CCN1CCc2cc(OC)c(OC)cc2C1Cc1ccc(O)cc1 (racemic) | 5.07 | 4.51 | – | – | – | – |
| CCCN1CCc2cc(OC)c(OCc3ccccc3)cc2C1Cc1ccc(OCc2ccccc2)cc1 (racemic) | 5.05 | 5.75 | – | – | – | – |
| COc1cc2c(cc1O)C(Cc1ccc(O)cc1)N(C)CC2 (racemic) [METHYL COCLAURINE] | 5.63 | 4.64 | 24.5 | 67.6 | – | – |
| CCN1CCc2cc(OC)c(O)cc2C1Cc1ccc(O)cc1 (racemic) | 5.29 | 4.86 | – | – | – | – |
| COc1ccc2cc1Oc1ccc(cc1)C[C@H]1c3cc(c(OC)cc3CCN1C)Oc1c(OC)c(OC)cc3c1[C@H](C2)N(C)CC3 [FANCHININ] | 6.16 | 6.13 | 29.5 | 13.5 | – | – |
| COc1ccc(CC2c3cc(OC)c(OC)cc3CCN2C)cc1 (racemic) | 5.1 | 5.38 | 66.1 | 14.8 | – | – |
| COc1cc2c(cc1O)C(Cc1ccc(O)cc1)NCC2 (racemic) [COCLAURINE] | 5.97 | – | 17.4 | – | 17.2 | 30 |
| COc1cc2c(cc1OC)C(Cc1ccc(O)cc1)N(C)CC2 (racemic) | 5.14 | 5.02 | 209 | 115 | – | – |
| COc1ccc(CC2c3cc(O)c(OC)cc3CCN2C)cc1 (racemic) | 5.29 | 4.9 | 25.1 | 72.4 | – | – |

Second part, led by results:

| pKi [1] | pKi [2] | IC50 (Aorta [3]) [µM] | IC50 (Aorta [4]) [µM] | Structure (SMILES) | Activity (Aorta [5]) [%] | Activity ([2]; rat) [%] |
| --- | --- | --- | --- | --- | --- | --- |
| 5.12 | 5.74 | – | – | COc1cc2c(cc1OCc1ccccc1)C(Cc1ccc(OCc3ccccc3)cc1)N(C)CC2 (racemic) | – | – |
| 4.92 | 4.49 | – | – | COc1ccc(CC2NCCc3cc(OC)c(O)cc32)cc1 (racemic) | – | – |
| 5.73 | 5.82 | 4.27 | 11.5 | COc1ccc(CC2c3cc(OCc4ccccc4)c(OC)cc3CCN2C)cc1 (racemic) | – | – |
| 5.23 | – | – | – | COc1cc2c(cc1OC)C(Cc1ccc(O)cc1)NCC2 (racemic) | – | – |
| 5.69 | 5.57 | 16.2 | 13.8 | COc1cc2c(cc1O)C(Cc1ccc(OCc3ccccc3)cc1)NCC2 (racemic) | – | – |
| 5.49 | 5.7 | 8.71 | 5.75 | COc1cc2c(cc1OCc1ccccc1)C(Cc1ccc(O)cc1)N(C)CC2 (racemic) | – | – |
| 5.34 | – | – | – | COc1ccc(CC2NCCc3cc(OC)c(OCc4ccccc4)cc32)cc1 (racemic) | – | – |
| 5.02 | 4.61 | – | – | COc1cc2c(cc1OCc1ccccc1)C(Cc1ccc(OCc3ccccc3)cc1)NCC2 (racemic) | – | – |
| 5.49 | 5.6 | 13.2 | 7.59 | COc1cc2c(cc1OCc1ccccc1)C(Cc1ccc(O)cc1)NCC2 (racemic) | – | – |
